We go through nine compounds from patent EP0329295A1, “Renin inhibiting peptides with polar end groups” (THE UPJOHN COMPANY, priority 1988, dated 1989).

*1 amine or outer side, *2 acyl side, *3 side chain or, on linkers, in order; H or OH if unused. Where a SMILES comes first, the peptide text is derived from it. [ ]: non-standard residue; d: D form. The star is where a group is joined. NH(β-GlcNAc) = CC(=O)N[C@@H]1[C@@H](O)[C@H](O)[C@@H](CO)O[C@H]1N*; X1 = CC(C)C[C@H](N[*:1])[C@@H](O)C[C@H](C(=O)[*:2])C(C)C; X2 = OC[C@H]1O[C@@H](N*)[C@@H](O)[C@@H](O)[C@@H]1O; GlcN = OC[C@H]1OC(O)[C@H](N*)[C@@H](O)[C@@H]1O; NMeH = CN[C@@H](Cc1c[nH]cn1)C(=O)O; NHCH2(2-pyridyl) = c1ccc(CN*)nc1; Boc = CC(C)(C)OC(=O)*; CO = O=C([*:1])[*:2]

The first assay concerns the target T1, renin (Homo sapiens, UniProt P00797).
T1 sequence (P00797 67-406): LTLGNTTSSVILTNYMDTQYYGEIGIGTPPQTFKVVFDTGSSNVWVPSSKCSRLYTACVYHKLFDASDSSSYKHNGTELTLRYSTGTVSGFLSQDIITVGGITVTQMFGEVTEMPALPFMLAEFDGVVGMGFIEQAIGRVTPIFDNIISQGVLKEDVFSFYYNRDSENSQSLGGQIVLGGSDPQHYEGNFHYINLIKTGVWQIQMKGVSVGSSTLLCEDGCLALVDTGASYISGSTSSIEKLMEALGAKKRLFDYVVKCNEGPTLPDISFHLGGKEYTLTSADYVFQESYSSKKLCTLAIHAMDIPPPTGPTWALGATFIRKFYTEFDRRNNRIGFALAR
As to the kind of experiment: renin inhibitory activity (IC50), determined as described in EP 0173481, pages 103-105. The conditions noted are these: renin inhibition; values given in molar units. In kind it is biochemical. From the text: The determination of renin inhibitory activity of the compounds of the present invention (ICso's) are well known to one of ordinary skill in the art, as, for example, described in published European application 0173481, published 5 March 1986, pages 103-105.
Turning to `CC[C@H](C)[C@H](NC(=O)[C@@H](C[C@H](O)[C@H](CC(C)C)NC(=O)[C@H](Cc1c[nH]cn1)N(C)C(=O)[C@H](Cc1ccccc1)NC(=O)[C@@H]1CCCN1C(=O)[C@H](CC(=O)N[C@@H]1O[C@H](CO)[C@@H](O)[C@H](O)[C@@H]1O)NC(=O)OC(C)(C)C)C(C)C)C(=O)NCc1ccccn1` [Example 38, β-Man-α-N-Boc-Asn-Pro-Phe-N-MeHis-Leu[CH(OH)CH2]-Val-Ile-AMP] (Boc-D(X2)PF[NMeH][X1]I-{NHCH2(2-pyridyl)}), the IC50 (commonly the concentration at which inhibition is half-maximal) stood at 0.55 nM.
In turn, `CC(C)[C@H](C[C@H](O)[C@H](CC1CCCCC1)NC(=O)[C@H](Cc1c[nH]cn1)N(C)C(=O)[C@H](Cc1ccccc1)NC(=O)[C@@H]1CCCN1C(=O)N[C@H]1C(O)O[C@H](CO)[C@@H](O)[C@@H]1O)C(=O)NC[C@H](C)O` (relative stereo) [Example 29, [1 S-[1 R*,2R*,4R*(R*)]]-1-[[(2-Deoxy-D-glucopyranos-2-yl)amino]carbonyl]-L-Prolyl-L-phenylalaryl-N-[1-(cyclohexylmethyl)-2-hydroxy-4-[[(2-hydroxypropyl)-amino]carbonyl]-5-methylhexyl]-Nα-methyl-L-histidinamide] showed an IC50 of 1.5 nM.
Still for that read-out and setting: to `COC(=O)CC[C@H](NC(=O)[C@@H](C[C@H](O)[C@H](CC1CCCCC1)NC(=O)[C@H](Cc1c[nH]cn1)N(C)C(=O)[C@H](Cc1ccccc1)NC(=O)[C@@H]1CCCN1C(=O)NC(CO)(CO)CO)C(C)C)C(=O)NCc1ccccn1` (relative stereo) [Example 32, [1 S-[1R*,2R*,4R*(R*)]]-1-[[[2-Hydroxy-1,1-bis(hydroxymethyl)ethyl]amino]carbonyl]-L-prolyl-L-phenylalaryl-N-[1-(cyclohexylmethyl)-2-hydroxy-4-[[[4-methoxy-4-oxo-1-[[(2-pyridinylmethyl)amino]carbonyl]-butyl]-amino]carbonyl]-5-methyl-hexyl]-Nα-methyl-L-histidinamide] belongs 0.3 nM; to `CC[C@H](C)[C@H](NC(=O)[C@@H](C[C@H](O)[C@H](CC(C)C)NC(=O)[C@H](Cc1c[nH]cn1)N(C)C(=O)[C@H](Cc1ccccc1)NC(=O)[C@@H]1CCCN1C(=O)N[C@H]1C(O)O[C@H](CO)[C@@H](O)[C@@H]1O)C(C)C)C(=O)NCc1ccccn1` (stereo partly drawn) [Example 9, N-(Glucosaminocarbonyl)-Pro-Phe-N(Me)His-LVA-lie-AMP] ({GlcN-CO}-PF[NMeH][X1]I-{NHCH2(2-pyridyl)}), 0.49 nM; to `CC[C@H](C)[C@H](NC(=O)[C@@H](C[C@H](O)[C@H](CC(C)C)NC(=O)[C@H](Cc1c[nH]cn1)N(C)C(=O)[C@H](Cc1ccccc1)NC(=O)[C@@H]1CCCN1C(=O)[C@H](CC(=O)N[C@@H]1O[C@H](CO)[C@@H](O)[C@H](O)[C@H]1NC(C)=O)NC(=O)OC(C)(C)C)C(C)C)C(=O)NCc1ccccn1` [Example 36, β-N-AcGLc-α-N-Boc-Asn-Pro-Phe-N-MeHis-Leu[CH(OH)CH2]-Val-Ile-AMP] (Boc-D(NH(β-GlcNAc))PF[NMeH][X1]I-{NHCH2(2-pyridyl)}), 0.41 nM.

Still in this assay, the particulars now being: renin inhibition; values in nM.
Turning to `COc1ccc(C[C@H](NC(=O)[C@@H]2CCCN2C(=O)NC(CO)(CO)CO)C(=O)N[C@@H](Cc2c[nH]cn2)C(=O)N[C@@H](CC2CCCCC2)[C@@H](O)[C@@H](O)CC(C)C)cc1` [Example 14, L-Histidinamide, 1-[[[2-hydroxy-1,1-bis(hydroxymethyl)ethyl]amino]carbonyl]-L-prolyl-O-methyl-L-tyrosyl-N-[1-(cyclohexylmethyl)-2,3-dihydroxy-5-methylhexyl]-, [1S-(1R*,2S*,3R*)]-], the half-inhibitory concentration (IC50) stood at 0.21 nM.
Still for that read-out and setting: to `COc1ccc(C[C@H](NC(=O)[C@@H]2CCCN2C(=O)N[C@H]2C(O)O[C@H](CO)[C@@H](O)[C@@H]2O)C(=O)N[C@@H](Cc2c[nH]cn2)C(=O)N[C@@H](CC2CCCCC2)[C@@H](O)[C@@H](O)CC(C)C)cc1` (relative stereo) [Example 15] belongs 2.3 nM; to `CC(C)C[C@H](O)[C@H](O)[C@H](CC1CCCCC1)NC(=O)[C@H](Cc1c[nH]cn1)N(C)C(=O)[C@H](Cc1ccccc1)NC(=O)[C@@H]1CCCN1C(=O)N[C@H]1C(O)O[C@H](CO)[C@@H](O)[C@@H]1O` (relative stereo) [Example 13, L-Histadinamide, 1-([(2-deoxy-D-glucopyranos-2-yl)amino]carbonyl]-L-prolyl-L-phenylalanyl-N-[1-(cyclohexylmethyl)-2,3-dihydroxy-5-methylhexyl]-N.aIpha.-methyl-, [1 S-(1 R*,2S*,3R(*)]]-], 2.4 nM.
Still for that read-out and setting: the result for `CC(C)C[C@H](O)[C@H](O)[C@H](CC1CCCCC1)NC(=O)[C@H](Cc1c[nH]cn1)N(C)C(=O)[C@H](Cc1ccccc1)NC(=O)[C@@H]1CCCN1C(=O)NC(CO)(CO)CO` (relative stereo) [Example 12, L-Histidinamide, 1-[[[2-hydroxy-1,1-bis(hydroxymethyl)ethyl]amino]carbonyl]-L-prolyl-L-phenylalanyl-N-[1 (cyclohexylmethyl)-2,3-dihydroxy-5-methylhexyl]-Nα-methyl-, [1 S-(1 R*,2S*,3R*)-]-] reads 0.26 nM.
